Data taken from article PMC12549899 (Nature Communications, 2025).

Assay: Mixing of DMSO master stock into aqueous cryo-EM sample (precipitation)
Type: physicochemical
Settings: 0.2 µL of 2.17 M DMSO stock into 40 µL DrOTOP1 sample, nominal ≤ 10.85 mM, 0.5% DMSO
Experimental: All protein purification steps were performed at 4 °C, and buffers were chilled on ice until use unless otherwise noted. Cell pellets were thawed in a room-temperature water bath and resuspended in Solubilization Buffer (25 mM Tris pH 8.0, 150 mM NaCl, 1% n-dodecyl-β-d-maltoside (DDM), 0.15% cholesteryl hemisuccinate (CHS), […], 1 mM phenylmethylsulfonyl Fluoride (PMSF), 2 µM pepstatin A and 2 mM dithiothreitol (DTT)) and was stirred for 1 – 3 h for detergent solubilization. The lysate was centrifuged at 40,000 × g and the supernatant was collected. […]. Next, the mixture was flowed over a gravity chromatography column, and flowthrough containing GFP-cleaved DrOTOP1 was collected and concentrated in a 100 kDa cutoff centrifugal concentrator (Amicon® Ultra or Pierce™) that was pre-equilibrated with SEC1 Buffer, to 500 µL volume. […] The resulting peaks were analyzed with sodium dodecyl sulfate-polyacrylamide gel electrophoresis (SDS-PAGE), and fractions corresponding to dimeric DrOTOP1 were pooled. […] The resulting peaks were analyzed with SDS-PAGE, and fractions corresponding to dimeric DrOTOP1 in lipid nanodisc were pooled and concentrated to 2 – 5 mg/mL with a 100 kDa cutoff centrifugal concentrator (Amicon® Ultra or Pierce™). […]

C=C(C)COc1ccccc1NC(=O)c1nc[nH]c1C [C2.2]
Solubility in aqueous buffer: visible precipitation formed
